# Laboratory results taken from patent US20260297136A1, “PEPTIDES WITH LIPOLYTIC, ANTI-LIPOGENIC, ANTIFIBROTIC AND ANTI-INFLAMMATORY ACTIVITY” (FUNDACIÓ HOSPITAL UNIVERSITARI VALL D'HEBRON - INSTITUT DE …, priority 2023, published 2026).
# Assays:
# [1] = tested on: CCl4-induced fibrosis mouse model; test: Preventive effects in a CCl4-induced fibrosis mouse model, Example 5; format: in vivo, C57BL6/J male mice; details: 20 mg/kg/day sc, vs vehicle
# Method: C57BL6/J male mice were purchased and kept for quarantine and acclimatization for a period of about 7 days before initiation of every experiment. Mice were housed in clean and sterilized mice cages and maintained in a controlled environment with 22+3° C. temperature, 50+20% humidity, a light/dark cycle of 12 hours each and 15-20 fresh air changes per hour.
# Preventive effect of a daily subcutaneous injection of GP6 (20 mg/kg/day) in a mouse model of fibrosis induced by twice a week intraperitoneal injection of CCl4 (1 ml/Kg diluted in olive oil 1:5) during a 4 weeks period. A group of control mice (n=6) was treated with daily subcutaneous injections of vehicle (water) and the other group (n=10) with daily subcutaneous injection of GP6 (20 mg/kg/day) during 10 weeks.
# At the end of the experiment mice were sacrificed, serum samples were extracted, tissues were weighted and part was fixed in paraformaldehyde for histology studies and part immediately frozen at −80 C for mRNA and protein expression studies.
# The Histology studies, AST and ALT measurements as well the RNA analysis were performed as described in example 4.
# LX-2 cells [2] = test: Fibrosis in LX-2 cells: Col1A1 mRNA induced by TGFβ1, Example 3; format: cell-based, human; details: 24 h
# Method: FIG. 3 Human hepatic stellate cell line LX-2 was treated with vehicle (DMSO) or TGFβ1 (10 ng/ml) in the absence or presence of GP6 (10 or 40 μg/ml) for 24 h. RNA was extracted and mRNA levels of collagen 1A1 (Col1A1) relative to 18S were measured by RTPCR.
# Cell culture reagents were from Life Technologies Inc (Invitrogen SA, Barcelona, Spain). HepG2 hepatoblastoma cells (cat. no. HB-8065; ATCC, LGC Standards SLU, Barcelona, Spain) were maintained in Dulbecco's modified Eagle medium (DMEM) supplemented with 10% fetal bovine serum and antibiotics. HepG2 cells were cultured for 5 day in the absence or presence of 30 mM fructose. Cells cultured in 30 mM fructose were daily treated with vehicle, Telmisartan, Semaglutide or GP6. LX-2 human hepatic stellate cells (SCC064) were maintained in DMEM supplemented with 2% fetal bovine serum and antibiotics. […]
# (§1) Total RNA was extracted from HepG2 and LX-2 cells using TRIzol reagent (Invitrogen SA). […] Results were analyzed using the 7000 Sequence Detection System program (Applied Biosystems, Thermo Fisher Scientific, Barcelona, Spain) (Sex Hormone-Binding Globulin Reduction in Metabolic Disorders May Play a Role in NAFLD Development.Saez-Lopez C, Barbosa-Desongles A, Hernandez C, Dyer R A, Innis S M, Simo R, Selva D M. Endocrinology. 2017 Mar. 1; 158(3):545-559. doi: 10.1210/en.2016-1668).
# LX-2 cells [3] = test: Fibrosis in LX-2 cells: Col1A1 mRNA induced by TGFβ1, Example 7; format: cell-based, human; details: 24 h
# Method: FIG. 33. Effect of different peptides and SHBG on fibrosis in LX-2 cells.
# LX-2 human hepatic stellate cells (SCC064) were maintained in DMEM supplemented with 2% fetal bovine serum and antibiotics. For experiments, LX-2 were cultured for 24 h in DMEM 0.2% FBS and treated for 24 h with vehicle or TGFβ1 (20 ng/ml) in the absence or presence of EDL6D (10 or 40 μg/ml). At the end of the experiment's cells were harvested for gene expression analysis.
# Total RNA was extracted from HepG2 and LX-2 cells using TRIzol reagent (Invitrogen SA). Reverse transcription was performed at 42° C. for 50 minutes using […] of total RNA, 200 U of Superscript II, and an oligo-dT primer and reagents provided by Invitrogen. An aliquot of the reverse transcription product was amplified in a […] reaction using SYBRGreen (Invitrogen SA) with appropriate oligonucleotide primer pairs corresponding to human SHBG, ACC, FAS, ACLY, PPARG, and 18S and mouse ACC, FAS, ACLY, PPARG, Col1A1 and 18S. Results were analyzed using the 7000 Sequence Detection System program (Applied Biosystems, Thermo Fisher Scientific, Barcelona, Spain) (Shez-Lopez et al Endocrinology 2017).
# HepG2 cells = test: Hepatic lipogenesis in HepG2 cells induced by 30 mM fructose (ACC and PPARγ mRNA), Example 3; format: cell-based, human; details: 5 days
# Method: FIG. 2. Human hepatoblastoma cell line HepG2 was treated with vehicle (DMSO) in the absence or presence of 30 mM fructose and Telmisartan (5 μg/ml), Semaglutide (10 nM) or GP6 (10 or 40 μg/ml) for 5 days. RNA was extracted and mRNA levels of Acetyl-CoA Carboxylase (ACC) (panel A) and Peroxisome proliferator-activated receptor gamma (PPARγ) (panel B) relative to 18S were measured by RTPCR.
# Cell culture reagents were from Life Technologies Inc (Invitrogen SA, Barcelona, Spain). HepG2 hepatoblastoma cells (cat. no. HB-8065; ATCC, LGC Standards SLU, Barcelona, Spain) were maintained in Dulbecco's modified Eagle medium (DMEM) supplemented with 10% fetal bovine serum and antibiotics. HepG2 cells were cultured for 5 day in the absence or presence of 30 mM fructose. Cells cultured in 30 mM fructose were daily treated with vehicle, Telmisartan, Semaglutide or GP6. LX-2 human hepatic stellate cells (SCC064) were maintained in DMEM supplemented with 2% fetal bovine serum and antibiotics. For experiments, LX-2 were cultured for 24 h in DMEM 0.2% FBS and treated for 24 h with vehicle or TGFβ1 (20 ng/ml) in the absence or presence of GP6 (10 or 40 μg/ml). At the end of the experiment's cells were harvested for gene expression analysis.
# as §1, with “SA). Reverse transcription was performed at 42° C. for 50 minutes using […] of total RNA, 200 U of Superscript II, and an oligo-dT primer and reagents provided by Invitrogen.” for “SA).”
structure (smiles),measurement,setting,value
CC[C@@H](C)[C@@H](NC(=O)[C@H](NC(=O)CNC(=O)[C@@H](CCC(=O)O)NC(=O)[C@H]1CCCN1C(=O)[C@@H](CC(=O)O)NC(=O)[C@@H](Cc1c[nH]c2ccccc12)NC(=O)[C@H](NC(=O)[C@@H](CCCNC(=N)N)NC(=O)[C@H](NC(=O)[C@@H](CCC(=O)O)NC(=O)[C@@H](Cc1ccccc1)NC(=O)[C@@H](CO)NC(=O)[C@@H](CO)NC(=O)[C@@H](CO)NC(=O)[C@H](NC(=O)[C@@H](CCCCN)NC(=O)[C@H](N)[C@H](C)O)[C@H](C)O)C(C)C)[C@H](C)O)C(C)C)C(=O)N[C@H](Cc1ccccc1)C(=O)N[C@H](Cc1ccc(O)cc1)C(=O)O [GP6],liver weight,[1],did not show any significance between groups
same,reduction of ALT serum levels,[1],~50%
same,reduction of Collagen (Col1A1) expression in hepatic tissue,[1],more than 50%
same,"reduction of hepatic fibrosis (picrosirius staining, ImageJ)",[1],approximately 37%
same,reduction of hepatic inflammation (F4/80 mRNA levels),[1],more than 50%
same,total body weight lost induced by CCl4,[1],mice treated with vehicle lost more body weight when compared with GP6 treated mice
same,reduction of mRNA levels of collagen 1A1 induced by TGFβ1,LX-2 cells [2]; 10 μg/ml,28%
same,reduction of mRNA levels of collagen 1A1 induced by TGFβ1,LX-2 cells [2]; 40 μg/ml,45%
same,mRNA levels of collagen 1A1 induced by TGFβ1,LX-2 cells [3],reduced the mRNA levels
same,effectiveness in reducing the induced expression of ACC and PPARγ versus positive controls,"HepG2 cells; GP6 10 or 40 μg/ml versus Telmisartan 5 μg/ml and Semaglutide 10 nM, 30 mM fructose",significantly much more effective than Telmisartan and Semaglutide
same,ACC mRNA levels induced by 30 mM fructose,"HepG2 cells; GP6 10 or 40 μg/ml, daily",reducing mRNA levels
same,PPARγ mRNA levels induced by 30 mM fructose,"HepG2 cells; GP6 10 or 40 μg/ml, daily",reducing mRNA levels
